Reference: the supplement of paper PMC9265050, “Inhibition of RNA Binding in SND1 Increases the Levels of miR-1-3p and Sensitizes Cancer Cells to Navitoclax” (Cancers, 2022)

Test system: SW480
Experiment: drug sensitivity score (DSS, integrated dose-response area); higher = more sensitive (stronger viability reduction); extreme values may be limits of the assay
Outline: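 After 7 days of induction with 0.1 µg/mL doxycycline, SW480 cells stably harbouring inducible control or SND1-targeting shRNA were plated at 1000 cells per well in 384-well plates preloaded with 525 small-molecule inhibitors at five concentrations. CellTiter-Glo viability readings were taken 72 h later. Drug sensitivity scores come from integrating the area under a fitted non-linear dose–response model.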

[1] = shRNA: SND1 shRNA1 (SND1 silenced)
[2] = shRNA: SND1 shRNA2 (SND1 silenced)
[3] = shRNA: control shRNA (non-targeting)

| SMILES | drug sensitivity score [1] [DSS] | drug sensitivity score [2] [DSS] | drug sensitivity score [3] [DSS] |
| --- | --- | --- | --- |
| Cn1ncc(Cl)c1-c1cc(C(=O)N[C@H](CN)Cc2ccc(F)c(F)c2)oc1Cl [Uprosertib] | 0 | 0.3 | 0.2 |
| Oc1ncc(N(CCCl)CCCl)c(O)n1 [Uramustine] | 0 | 0.1 | 0 |
| CS(=O)(=O)c1ccc(-c2cnc(N)c(C(=O)Nc3ccccc3)n2)cc1 [VE-821] | 0 |  | 0.8 |
| O=C(O)CC1CC(c2ccccc2)=NO1 (stereo not drawn) [VGX-1027] | 0.2 | 2.3 | 0 |
| CNC(=O)c1ccccc1Nc1cc(Nc2ccc(N3CCOCC3)cc2OC)ncc1C(F)(F)F [VS-4718] | 4.8 | 3.8 | 4.1 |
| O=c1ncn2nc(Sc3ccc(F)cc3F)ccc2c1-c1c(Cl)cccc1Cl [VX 745] | 1.4 |  | 3.4 |
| CCCC(CCC)C(=O)O [Valproic acid] | 0 |  | 0 |
| CCCCC(=O)OCC(=O)[C@]1(O)Cc2c(O)c3c(c(O)c2[C@@H](O[C@H]2C[C@H](NC(=O)C(F)(F)F)[C@H](O)[C@H](C)O2)C1)C(=O)c1c(OC)cccc1C3=O [Valrubicin] | 8.7 | 7.8 | 8.2 |
| COc1cc2/c(=N/c3ccc(Br)cc3F)nc[nH]c2cc1OCC1CCN(C)CC1 [Vandetanib] | 2.1 | 5.8 | 5.9 |
| CCc1c(C(=O)C(N)=O)c2c(OCC(=O)O)cccc2n1Cc1ccccc1 [Varespladib] | 0 | 1.1 | 0 |
| C[C@@H]1COC(Nc2ccc3ncnc(Nc4ccc(OCc5nccs5)c(Cl)c4)c3c2)=N1 [Varlitinib] | 0.4 | 1.2 | 3.5 |
| Clc1ccc(Nc2nnc(Cc3ccncc3)c3ccccc23)cc1 [Vatalanib] | 1.8 | 6.5 | 2 |
| C[C@]1(c2nc3c(C(N)=O)cccc3[nH]2)CCCN1 [Veliparib] | 0 | 0 | 0 |
| CCCS(=O)(=O)Nc1ccc(F)c(C(=O)c2c[nH]c3ncc(-c4ccc(Cl)cc4)cc23)c1F [Vemurafenib] | 0 | 0.1 | 0 |
| CC1(C)CCC(CN2CCN(c3ccc(C(=O)NS(=O)(=O)c4ccc(NCC5CCOCC5)c([N+](=O)[O-])c4)c(Oc4cnc5[nH]ccc5c4)c3)CC2)=C(c2ccc(Cl)cc2)C1 [Venetoclax] | 0 | 0 | 0 |
| O=C(/C=C\n1cnc(-c2cc(C(F)(F)F)cc(C(F)(F)F)c2)n1)NNc1ccccn1 [Verdinexor] | 8 | 4.5 | 8.6 |
| CC[C@]1(O)C[C@@H]2CN(CCc3c([nH]c4ccccc34)[C@@](C(=O)OC)(c3cc4c(cc3OC)N(C)[C@H]3[C@@](O)(C(=O)OC)[C@H](OC(C)=O)[C@]5(CC)C=CCN6CC[C@]43[C@@H]65)C2)C1 [Vinblastine] | 9.6 | 8 | 15.4 |
| CC[C@]1(O)C[C@H]2CN(CCc3c([nH]c4ccccc34)[C@@](C(=O)OC)(c3cc4c(cc3OC)N(C=O)[C@H]3[C@@](O)(C(=O)OC)[C@H](OC(C)=O)[C@]5(CC)C=CCN6CC[C@]43[C@@H]65)C2)C1 [Vincristine] | 10.1 | 9.7 | 16.6 |
| CCC1=C[C@@H]2CN(C1)Cc1c([nH]c3ccccc13)[C@@](C(=O)OC)(c1cc3c(cc1OC)N(C)[C@H]1[C@@](O)(C(=O)OC)[C@H](OC(C)=O)[C@]4(CC)C=CCN5CC[C@]31[C@@H]54)C2 [Vinorelbine] | 19.3 | 19.5 | 22.4 |
| CS(=O)(=O)c1ccc(C(=O)Nc2ccc(Cl)c(-c3ccccn3)c2)c(Cl)c1 [Vismodegib] | 0 | 0 | 0 |
| CC[C@@H]1C(=O)N(C)c2cnc(Nc3ccc(C(=O)N[C@H]4CC[C@H](N5CCN(CC6CC6)CC5)CC4)cc3OC)nc2N1C(C)C [Volasertib] | 13.1 | 14.4 | 14.8 |
| O=C(CCCCCCC(=O)Nc1ccccc1)NO [Vorinostat] | 7.8 | 8 | 9.3 |
| CCn1c(=O)c(-c2cc[nH]n2)cc2c(C)nc(N)nc21 [Voxtalisib] | 7.4 | 6.5 | 5.7 |
| Oc1nc(-c2ccc(C(F)(F)F)cc2)nc2c1CSCC2 [XAV-939] | 3.9 | 0 | 3.2 |
| O=C(Nc1ccc(-c2ccnc(Nc3ccc(N4CCOCC4)cc3)n2)cc1)C1CCCN1 (stereo not drawn) [XL019] | 0.1 |  | 1.7 |
| COc1cc2c(Nc3ccc(Cl)c(Cl)c3F)ncnc2cc1OC[C@@H]1C[C@@H]2CN(C)C[C@@H]2C1 [XL-647] | 2.1 | 3.1 | 2.4 |
| COCC[n+]1c2c(n(Cc3cnccn3)c1C)C(=O)c1ccccc1C2=O [YM155] | 15.5 | 8.8 | 21.4 |
| FC(F)c1nc2ccccc2n1-c1nc(N2CCOCC2)nc(N2CCOCC2)n1 [ZSTK474] | 7.3 | 5.1 | 4 |
| c1ccc(Cn2c(-c3ccc(OC[C@H](C4CCNCC4)n4c(-c5ccccc5)nc5ccccc54)cc3)nc3ccccc32)cc1 [deltarasin] | 5.7 | 6.6 | 4.4 |
